Measured values taken from patent publication US10464941B2, “Therapeutic compounds” (REGENTS OF THE UNIVERSITY OF MINNESOTA, priority 2015, dated 2019).
Marks after values point to notes of the source that are not given here.

Tests used:
control mice = test: Radiant heat tail-flick antinociception, control (LPS-untreated) mice; format: in vivo; conditions: control mice; for CONTROLS ED50 (CI) i.t. / CONTROLS ED50 (CI) i.c.v.: tail flick
Text: Pain is a hallmark of many inflammatory conditions.

LPS-pretreated mice = test: animal or person; conditions: for LPS pretreated i.c.v./i.t. ratio / LPS pretreated ED50 (CI) i.c.v. / LPS pretreated ED50 (CI) i.t.: LPS 1 mg/kg 24 hours i.p.; for LPS pretreated ED50 (CI) i.c.v. / LPS pretreated ED50 (CI) i.t.: tail flick; for Relative Potency relative to a mixture of monovalent mu agonist (4) and CCR5 antagonist (2): mouse, in vivo; for percent maximal possible effect at highest dose measured: 1000 pmol/mouse; for ED50 values (95% CI) LPS (thermal): LPS thermal hyperalgesia model
Description: Male ICR-CD1 mice (17-25 g; Harlan, Madison, Wis.), C3H mice (15-20 g, National Cancer Institute, Bethesda, Md.) or TLR4 knock-out mice (gift from Dr. Sabita Roy) were housed, 4 to a small box in a temperature- and humidity-controlled environment with unlimited access to food and water. They were maintained on a 12 h light/dark cycle. All experiments were approved by the Institutional Animal Care and Use Committee of the University of Minnesota (Minneapolis, Minn.).
The tail flick assay is used to test for antinociception described by D'Amour and Smith^64 and modified by Dewey et. al.^65 Mice are held gently in one hand with the tail positioned in the apparatus (Tail Flick Analgesia Meter, Columbus Instruments, Columbus, Ohio) for radiant heat stimulus. The tail-flick response is elicited by applying radiant heat to the dorsal side of the tail. The test latency is measured before drug treatment (control) and again after the drug treatment (test) at the peak time of the compound, a 10 s maximum cut-off time is used to prevent damage to the tail. Antinociception is quantified according to the method of Harris and Pierson^66 as the percent maximal possible effect (% MPE) which is calculated as: % MPE=(Test−Control/10−Control)×100
A minimum of three groups of eight to ten mice are used for each dose response curve, and each mouse is used only once.
The compounds were tested for acute tolerance by comparing the ED80-90 dose measured on day 1 to the same dose administered and retested 24 hours later on the same mouse.
Compounds were dissolved in 5% DMSO and diluted to less than 1% DMSO for injection. These compounds were administered in a volume of 5-μl either i.c.v (Haley and McCormick) or intrathecal (i.t.) as described for mice by Hylden and Wilcox^67 in conscious mice. […] Time course studies, including the times 5, 10, 20, 30 and 60 minutes were used to determine the peak antinociception.
Pain is a hallmark of many inflammatory conditions. […] Antinociception was evaluated using the radiant heat-induced tailflick assay. Morphine was employed as a standard opioid agonist under these conditions.

[1] = test system: CFA-induced mechanical hyperalgesia mouse model; test: Complete Freund's Adjuvant (CFA) mechanical hyperalgesia, electronic von Frey; format: in vivo, mice; conditions: i.t.
Description: Before injection of CFA baseline withdrawal thresholds (g) were obtained from a mechanical stimulation using an electronic von Frey anesthesiometer (IITC Life Sciences, Woodland Hills, USA) by applying an accurate force on both left and right hind paw. (2,3) The left hindpaws were then injected (intraplantar) with a 50% solution of CFA (10 μg, Sigma-Aldrich) in water while the mice are under isoflurane anesthesia (10). Twenty-four hours later the withdrawal threshold (g) was again measured prior to and after the test compound i.t. at 10, 20, 30 and 60 minutes to determine the peak time and subsequent ED50. % MPE was calculated ((Time-point withdrawal threshold with drug−CFA withdrawal threshold)/(Day 0 withdrawal threshold−CFA withdrawal threshold))*100 (Wade, C. L., et al., PLoS One 2013, 8, e79239/1-e79239/11, 11 pp; Martinov, T., et al., J Vis Exp 2013, e51212; Sorge, R. E., et al., J. Neurosci. 2011, 31, 15450-15454).

SMILES	percent maximal possible effect at highest dose measured (control mice; i.c.v., 250 pmol/mouse)	acute tolerance (ED80 retested 24 hours later) (control mice; i.t.)	CONTROLS ED50 (CI) i.t. (control mice; i.t.)	LPS pretreated i.c.v./i.t. ratio (LPS-pretreated mice)	LPS pretreated ED50 (CI) i.c.v. (LPS-pretreated mice; i.c.v.)	LPS pretreated ED50 (CI) i.t. (LPS-pretreated mice; i.t.)	Relative Potency relative to a mixture of monovalent mu agonist (4) and CCR5 antagonist (2) (LPS-pretreated mice)	CONTROLS i.c.v./i.t. ratio (control mice)	percent maximal possible effect at highest dose measured (control mice; i.c.v., 1000 pmol/mouse)	percent maximal possible effect at highest dose measured (LPS-pretreated mice; LPS pretreated, i.c.v.)	ED50 values (95% CI) LPS (thermal) (LPS-pretreated mice; i.t.)	ED50 values (95% CI) CFA (mechanical) [1]	acute tolerance (ED80 retested 24 hours later) (control mice; i.c.v.)	CONTROLS ED50 (CI) i.c.v. (control mice; i.c.v.)	% MPE still present 24 hours later (LPS-pretreated mice; LPS pretreated, i.t., 24 hours later)	percent maximal possible effect at highest dose measured (control mice; i.t., 1000 pmol/mouse)	percent maximal possible effect at highest dose measured (control mice; i.t., 500 pmol/mouse)	percent maximal possible effect at highest dose measured (LPS-pretreated mice; LPS pretreated, i.t.)
Cc1ccc(N(CCCN2CCC(Cc3ccc(C(N)=O)cc3)CC2)C(=O)C2CCN(C(=O)COCC(=O)NCCCCCCCNC(=O)COCC(=O)N[C@H]3CC[C@@]4(O)C5Cc6ccc(O)c7c6[C@@]4(CCN5C)[C@H]3O7)CC2)cc1Cl [Compound 3c, N-(3-(4-(4-carbamoylbenzyl)piperidin-1-yl)propyl)-N-(3-chloro-4-methylphenyl)-1-(19-(((4aS,7S,7aR,12bS)-4a,9-dihydroxy-3-methyl-2,3,4,4a,5,6,7,7a-octahydro-1H-4,12-methanobenzofuro[3,2-e]isoquinolin-7-yl)amino)-5,15,19-trioxo-3,17-dioxa-6,14-diazanonadecan-1-oyl)piperidine-4-carboxamide]	35.9 ± 9.0%	(54.6-507)^c	166 pmol/mouse	60.7	692 pmol/mouse	11.4 pmol/mouse	4.6	–	–	–	–	–	–	–	–	–	–	–
Cc1ccc(N(CCCN2CCC(Cc3ccc(C(N)=O)cc3)CC2)C(=O)C2CCN(C(=O)COCC(=O)NCCCCCCCCCCCCNC(=O)COCC(=O)N[C@H]3CC[C@@]4(O)C5Cc6ccc(O)c7c6[C@@]4(CCN5C)[C@H]3O7)CC2)cc1Cl [Compound 3f, N-(3-(4-(4-carbamoylbenzyl)piperidin-1-yl)propyl)-N-(3-chloro-4-methylphenyl)-1-(24-(((4aS,7S,7aR,12bS)-4a,9-dihydroxy-3-methyl-2,3,4,4a,5,6,7,7a-octahydro-1H-4,12-methanobenzofuro[3,2-e]isoquinolin-7-yl)amino)-5,20,24-trioxo-3,22-dioxa-6,19-diazatetracosan-1-oyl)piperidine-4-carboxamide]	–	–	336.9 pmol/mouse	8.15^d	–	122.70 pmol/mouse	0.4	~2.97	27.6 ± 9.1%	55.7 ± 11.2%	123 pmol/mouse	58 pmol/mouse	–	–	–	–	–	–
Cc1ccc(N(CCCN2CCC(Cc3ccc(C(N)=O)cc3)CC2)C(=O)C2CCN(C(=O)COCC(=O)NCCNC(=O)COCC(=O)N[C@H]3CC[C@@]4(O)C5Cc6ccc(O)c7c6[C@@]4(CCN5C)[C@H]3O7)CC2)cc1Cl [Compound 3a, N-(3-(4-(4-carbamoylbenzyl)piperidin-1-yl)propyl)-N-(3-chloro-4-methylphenyl)-1-(14-(((4aS,7S,7aR,12bS)-4a,9-dihydroxy-3-methyl-2,3,4,4a,5,6,7,7a-octahydro-1H-4,12-methanobenzofuro[3,2-e]isoquinolin-7-yl)amino)-5,10,14-trioxo-3,12-dioxa-6,9-diazatetradecan-1-oyl)piperidine-4-carboxamide]	–	(27.3-38.4)^b	32.3 pmol/mouse	5.32	56.41 pmol/mouse	10.6 pmol/mouse	4.9	3.29	–	–	11 pmol/mouse	3 pmol/mouse	(78.2-145)^c	107 pmol/mouse	–	–	–	–
Cc1ccc(N(CCCN2CCC(Cc3ccc(C(N)=O)cc3)CC2)C(=O)C2CCN(C(=O)COCC(=O)NCCCCCCCCCNC(=O)COCC(=O)N[C@H]3CC[C@@]4(O)C5Cc6ccc(O)c7c6[C@@]4(CCN5C)[C@H]3O7)CC2)cc1Cl [Compound 3d, N-(3-(4-(4-carbamoylbenzyl)piperidin-1-yl)propyl)-N-(3-chloro-4-methylphenyl)-1-(21-(((4aS,7S,7aR,12bS)-4a,9-dihydroxy-3-methyl-2,3,4,4a,5,6,7,7a-octahydro-1H-4,12-methanobenzofuro[3,2-e]isoquinolin-7-yl)amino)-5,17,21-trioxo-3,19-dioxa-6,16-diazahenicosan-1-oyl)piperidine-4-carboxamide]	–	–	15.83 pmol/mouse	118.62	–	8.43 pmol/mouse	6.2	63.98	54.5 ± 14.5^ %	63.1 ± 45.2%	–	–	–	–	24% MPE	–	–	–
CC(=O)N1CCC(C(=O)N(CCCN2CCC(Cc3ccc(C(N)=O)cc3)CC2)c2ccc(C)c(Cl)c2)CC1 [Compound 2, TAK-220, reference compound]	–	–	–	–	–	740 pmol/mouse	–	1	26.2 ± 5.9%	7.6 ± 1.5%	–	–	–	–	–	34.2 ± 10.8%	–	–
Cc1ccc(N(CCCN2CCC(Cc3ccc(C(N)=O)cc3)CC2)C(=O)C2CCN(C(=O)COCC(=O)NCCCCCNC(=O)COCC(=O)N[C@H]3CC[C@@]4(O)C5Cc6ccc(O)c7c6[C@@]4(CCN5C)[C@H]3O7)CC2)cc1Cl [Compound 3b, N-(3-(4-(4-carbamoylbenzyl)piperidin-1-yl)propyl)-N-(3-chloro-4-methylphenyl)-1-(17-(((4aS,7S,7aR,12bS)-4a,9-dihydroxy-3-methyl-2,3,4,4a,5,6,7,7a-octahydro-1H-4,12-methanobenzofuro[3,2-e]isoquinolin-7-yl)amino)-5,13,17-trioxo-3,15-dioxa-6,12-diazaheptadecan-1-oyl)piperidine-4-carboxamide]	–	(253-543)^c	371 pmol/mouse	6.38	187 pmol/mouse	10.9 pmol/mouse	4.8	3.14	–	–	–	–	(166-72.2)^c	358 pmol/mouse	–	–	–	–
CNC(=O)COCC(=O)NCCCCCCCNC(=O)COCC(=O)N1CCC(C(=O)N(CCCN2CCC(Cc3ccc(C(N)=O)cc3)CC2)c2ccc(C)c(Cl)c2)CC1 [Compound 5, N-(3-(4-(4-carbamoylbenzyl)piperidin-1-yl)propyl)-N-(3-chloro-4-methylphenyl)-1-(3,7,17-trioxo-5,19-dioxa-2,8,16-triazahenicosan-21-oyl)piperidine-4-carboxamide]	–	–	–	–	–	–	–	–	–	51.9 ± 12.3%	–	–	–	505 pmol/mouse	–	–	28.1 ± 11.3%	32.4 ± 12.5%
